In ChEMBL document CHEMBL6121007, “Design, synthesis and evaluation of pyrimidine derivatives as sedative-hypnotic agents” (Eur J Med Chem, 2025):
The source made the active and inactive calls. No cut-off for these calls is given here.

What was measured:
Mus musculus [1] = assay: Sedative-hypnotic activity in mouse assessed as latency time of first step out of center square at 50 mg/kg, ip administrated as single dose and measured after 30 mins by open field test; type: functional, organism-based
Mus musculus [2] = assay: Sedative-hypnotic activity in mouse assessed as reduction in grip strength score at 50 mg/kg, ip administrated as single dose and measured after 30 mins by grip strength test; type: functional, organism-based
Mus musculus [3] = assay: Sedative-hypnotic activity in mouse assessed as increase in latency time of first step out of center square at 0.1 to 2.5 mg/kg, ip administrated as single dose and measured after 30 mins by open field test; type: functional, organism-based; settings: dose 0.1-2.5 mg/kg
Mus musculus [4] = assay: Sedative-hypnotic activity in pentobarbital-induced mouse assessed as asleep rate at 0.5 to 2.5 mg/kg, ip preadministered with compound for 20 mins followed by pentobarbital administration and measured within 15 mins (reference value: 12.5 %); type: functional; settings: dose 0.5-2.5 mg/kg, time <= 35 min
Mus musculus [5] = assay: Sedative-hypnotic activity in pentobarbital-induced mouse assessed as decrease in sleep latency at 0.5 to 2.5 mg/kg, ip administrated as single dose; type: functional, organism-based; settings: dose 0.5-2.5 mg/kg
Mus musculus [6] = assay: Sedative-hypnotic activity in pentobarbital-induced mouse assessed as increase in sleep duration at 2.5 mg/kg, ip administrated as single dose; type: functional, organism-based
Mus musculus [7] = assay: In vivo activation of cAMP/PKA/CREB signaling pathway in mouse assessed as increase in PKA expression in hypothalamus at 2.5 mg/kg, ip measured after 30 mins by Western blot analysis; type: functional, organism-based
[8] = Half life in male Sprague-Dawley rat at 0.5 mg/kg, iv measured after 2 to 720 mins by LC-MS/MS analysis; type: ADME, organism-based; settings: in vivo, time 2-720 min
[9] = Tmax in male Sprague-Dawley rat at 0.5 mg/kg, iv measured after 2 to 720 mins by LC-MS/MS analysis; type: ADME, organism-based; settings: in vivo, time 2-720 min
[10] = AUC (0 to infinity) in male Sprague-Dawley rat at 0.5 mg/kg, iv measured after 2 to 720 mins by LC-MS/MS analysis; type: ADME, organism-based; settings: in vivo, time 2-720 min
[11] = MRT (0 to infinity) in male Sprague-Dawley rat at 0.5 mg/kg, iv measured after 2 to 720 mins by LC-MS/MS analysis; type: ADME, organism-based; settings: in vivo, time 2-720 min
[12] = MRT (0 to infinity) in male Sprague-Dawley rat at 2.5 mg/kg, ip measured after 5 to 1440 mins by LC-MS/MS analysis; type: ADME, organism-based; settings: in vivo, time 5-1440 min
[13] = Apparent volume of distribution in male Sprague-Dawley rat at 0.5 mg/kg, iv measured after 2 to 720 mins by LC-MS/MS analysis; type: ADME, organism-based; settings: in vivo, time 2-720 min, read-out: Vd(app)
[14] = Drug concentration in male mouse brain at 10 mg/kg, ip measured after 4 hrs by LC-MS/MS analysis; type: ADME, organism-based; settings: read-out: Ct
[15] = Ratio of drug concentration in male mouse brain to plasma at 10 mg/kg, ip measured after 1 hrs by LC-MS/MS analysis; type: ADME, organism-based; settings: brain and plasma, read-out: BPR
[16] = Ratio of drug concentration in male mouse brain to plasma at 10 mg/kg, ip measured after 2 hrs by LC-MS/MS analysis; type: ADME, organism-based; settings: brain and plasma, read-out: BPR
Mus musculus [17] = assay: Sedative-hypnotic activity in pentobarbital-induced mouse assessed as asleep rate at 0.5 to 0.1 mg/kg, ip preadministered with compound for 20 mins followed by pentobarbital administration and measured within 15 mins (reference value: 12.5 %); type: functional; settings: dose 0.5-0.1 mg/kg, time <= 35 min, at 0.1 to 0.5 mg/kg
Mus musculus [18] = assay: Upregulation of gap junction related genes in hypothalamus of mouse at 2.5 mg/kg, ip measured after 30 mins by KEGG enrichment analysis relative to control; type: functional; settings: 0.5 h
Mus musculus [19] = assay: Upregulation of cell cycle related genes in hypothalamus of mouse at 2.5 mg/kg, ip measured after 30 mins by KEGG enrichment analysis relative to control; type: functional; settings: 0.5 h
[20] = Upregulation of focal adhesion related genes in hypothalamus of mouse at 2.5 mg/kg, ip measured after 30 mins by KEGG enrichment analysis relative to control; type: functional; settings: 0.5 h
[21] = Upregulation of cytokine-cytokine receptor interaction related genes in hypothalamus of mouse at 2.5 mg/kg, ip measured after 30 mins by KEGG enrichment analysis relative to control; type: functional; settings: 0.5 h
[22] = Upregulation of MAPK signaling pathway related genes in hypothalamus of mouse at 2.5 mg/kg, ip measured after 30 mins by KEGG enrichment analysis relative to control; type: functional; settings: 0.5 h
[23] = Upregulation of FoxO signaling pathway related genes in hypothalamus of mouse at 2.5 mg/kg, ip measured after 30 mins by KEGG enrichment analysis relative to control; type: functional; settings: 0.5 h
[24] = Upregulation of cGMP-PKG signaling pathway related genes in hypothalamus of mouse at 2.5 mg/kg, ip measured after 30 mins by KEGG enrichment analysis relative to control; type: functional; settings: 0.5 h
Mus musculus [25] = assay: Upregulation of lipid and atherosclerosis related genes in hypothalamus of mouse at 2.5 mg/kg, ip measured after 30 mins by KEGG enrichment analysis relative to control; type: functional; settings: 0.5 h
[26] = Upregulation of herpes simplex virus 1 infection related genes in hypothalamus of mouse at 2.5 mg/kg, ip measured after 30 mins by KEGG enrichment analysis relative to control; type: functional; settings: 0.5 h
[27] = Upregulation of proteoglycans in cancer related genes in hypothalamus of mouse at 2.5 mg/kg, ip measured after 30 mins by KEGG enrichment analysis relative to control; type: functional; settings: 0.5 h
Mus musculus [28] = assay: Upregulation of purine metabolism related genes in hypothalamus of mouse at 2.5 mg/kg, ip measured after 30 mins by KEGG enrichment analysis relative to control; type: functional; settings: 0.5 h
Mus musculus [29] = assay: Upregulation of oxytocin signaling pathway related genes in hypothalamus of mouse at 2.5 mg/kg, ip measured after 30 mins by KEGG enrichment analysis relative to control; type: functional; settings: 0.5 h
Mus musculus [30] = assay: Upregulation of pancreatic secretion related genes in hypothalamus of mouse at 2.5 mg/kg, ip measured after 30 mins by KEGG enrichment analysis relative to control; type: functional; settings: 0.5 h
Mus musculus [31] = assay: Upregulation of circadian entrainment related genes in hypothalamus of mouse at 2.5 mg/kg, ip measured after 30 mins by KEGG enrichment analysis relative to control; type: functional; settings: 0.5 h
Mus musculus [32] = assay: Upregulation of signaling pathways regulating pluripotent stem cells related genes in hypothalamus of mouse at 2.5 mg/kg, ip measured after 30 mins by KEGG enrichment analysis relative to control; type: functional; settings: 0.5 h
Mus musculus [33] = assay: Upregulation of glycerolipid metabolism related genes in hypothalamus of mouse at 2.5 mg/kg, ip measured after 30 mins by KEGG enrichment analysis relative to control; type: functional; settings: 0.5 h
Mus musculus [34] = assay: Upregulation of parathyroid hormone synthesis related genes in hypothalamus of mouse at 2.5 mg/kg, ip measured after 30 mins by KEGG enrichment analysis relative to control; type: functional; settings: 0.5 h
Mus musculus [35] = assay: Upregulation of parathyroid hormone action related genes in hypothalamus of mouse at 2.5 mg/kg, ip measured after 30 mins by KEGG enrichment analysis relative to control; type: functional; settings: 0.5 h
Mus musculus [36] = assay: Upregulation of threonine metabolism related genes in hypothalamus of mouse at 2.5 mg/kg, ip measured after 30 mins by KEGG enrichment analysis relative to control; type: functional; settings: 0.5 h

With CCn1c2ccccc2c2cc(Nc3ccnc(Nc4ccc(C)c(OC)c4)n3)ccc21 the Activity (Mus musculus [1]) was “Active; Significant Effect Observed”, the Activity (Mus musculus [2]) was “Active” and the Activity (Mus musculus [3]) was “Active”. The Activity (Mus musculus [4]) was 100%, the Activity (Mus musculus [5]) was “Active” and the Activity (Mus musculus [6]) was “Active”. For the same molecule, the Activity (Mus musculus [7]) was “Active”, the half-life [8] was 3.54 h and the Tmax [9] was 1.8 min. It also gave an AUC(0-inf) [10] of 885 ng·h/mL, an MRT inf [11] of 3.47 h and an MRT inf [12] of 8.16 h. It also gave a Vd [13] of 2.9 L/kg, a concentration at 4 h [14] of 20.2 ng/mL and a Kp at 1 h [15] of 0.2. The Kp at 2 h [16] was 0.38, the Activity (Mus musculus [17]) was 75% and the Activity (Mus musculus [18]) was 2.89%. The Activity (Mus musculus [19]) was 2.89%, the Activity [20] was 2.89% and the Activity [21] was 8.09%. The Activity [22] was 6.36%, the Activity [23] was 4.62% and the Activity [24] was 2.89%. The Activity (Mus musculus [25]) was 7.51%, the Activity [26] was 5.78% and the Activity [27] was 5.2%. The Activity (Mus musculus [28]) was 1.73%, the Activity (Mus musculus [29]) was 5.2% and the Activity (Mus musculus [30]) was 4.05%. It also gave an Activity (Mus musculus [31]) of 3.47%, an Activity (Mus musculus [32]) of 2.89% and an Activity (Mus musculus [33]) of 2.31%. It also gave an Activity (Mus musculus [34]) of 4.05%, an Activity (Mus musculus [35]) of 4.05% and an Activity (Mus musculus [36]) of 1.73%.
